In US6642216B2, “Isoprenoid pathway inhibitors for stimulating bone growth” (ZymoGenetics Corporation, priority 1996, dated 2003):
Values joined by “and” are separate entries in the source; they are usually repeats but may differ in a detail not shown here. Equal values may be shown once.

Tests used:
[1] = system: chickens; conditions: Cui et al. 1996; cited from earlier work
[2] = system: osteoprogenitor cells cloned from bone marrow stroma; conditions: Cui et al. 1996; cited from earlier work
[3] = system: rabbits; conditions: Wang et al. 1995; cited from earlier work
[4] = system: ovariectomized Sprague-Dawley rats; test: Acute OVX (prevention model) oral dosing; type: in vivo, rat
Protocol: Lead compounds can also be tested in acute ovariectomized animals (prevention model) using an in vivo dosing assay. Such assays may also include an estrogen-treated group as a control. An exemplary subcutaneous dosing assay is performed as follows:
In a typical study, 80 three-month-old female Sprague-Dawley rats are weight-matched and divided into eight groups, with ten animals in each group. This includes a baseline control group of animals sacrificed at the initiation of the study; three control groups (sham ovariectomized (sham OVX)+vehicle only; ovariectomized (OVX)+vehicle only; PBS-treated OVX); and a control OVX group that is administered a compound known to promote bone growth. Three dosage levels of the compound to be tested are administered to the remaining three groups of OVX animals.
Since ovariectomy (OVX) induces hyperphagia, all OVX animals are pair-fed with sham OVX animals throughout the 35 day study. Briefly, test compound, positive control compound, PBS, or vehicle alone is administered orally or subcutaneously once per day for 35 days. Alternatively, test compound can be formulated in implantable pellets that are implanted for 35 days, or may be administered orally, such as by gastric gavage. All animals, including sham OVX/vehicle and OVX/vehicle groups, are injected intraperitoneally with calcein nine days and two days before sacrifice (two injections of calcein administered each designated day, to ensure proper labeling of newly formed bone). Weekly body weights are determined. At the end of the 35-day cycle, the animals' blood and tissues are processed as described above.
(§1) Lovastatin and simvastatin were analyzed in vivo using an acute OVX (prevention model) and/or chronic (treatment model) OVX model system, as described above under “Additional In Vivo Assays”.
Lovastatin was examined in an acute OVX study. Briefly, 59-0326 was orally administered (35, 7, or 1.4 mg/kg/day; once per day for 35 days) immediately following ovariectomy. At the end of the study, the animals' blood and tissues samples were processed, and the following data were obtained.
Similarly, lovastatin was orally administered (0.1, 1, 5, 10, 20 or 40 mg/kg/day; once per day for 35 days) immediately following ovariectomy. Two individuals histomorphometrically analyzed samples removed from animals that received the 10 mg/kg/day dose. These analyses indicated an increase in trabecular bone volume of 38% (not significant) or 90% (p<0.02) in the proximal tibia. The bone formation rate in the proximal tibia was determined to have increased 74% (p=0.004) in animals that received a 10 mg/kg/day dose or 37% (p<0.008) in animals that received a 1 mg/kg/day dose. In samples from animals that received the 1 mg/kg/day dose, mineral apposition rate in the proximal tibia was increased 22%.

[5] = system: serum response element (SRE)-luciferase reporter gene / CRE-luciferase reporter gene; test: negative control OBSRE (SRE-luciferase) and/or glucagon (CRE-luciferase) assays; type: cell-based, murine
Description: In the negative control OBSRE assay, a murine osteoblast cell line, such as CCC-4 expressing a serum response element (SRE)-luciferase reporter gene is used (see WO96/07733). In the negative control glucagon assay, a glucagon receptor-positive BHK cell expressing a CRE-luciferase reporter gene is used (see U.S. Pat. No. 5,698,672).

[6] = system: ovariectomized rats; test: Chronic OVX (treatment model) oral dosing; type: in vivo, rat; conditions: once per day for 10 weeks, from 6 weeks post-ovariectomy, not significant
Protocol: Lead compounds may also be tested in chronic OVX animals (treatment model). An exemplary protocol for treatment of established bone loss in ovariectomized animals that can be used to assess efficacy of anabolic agents may be performed as follows. Briefly, 80 to 100 six month old female, Sprague-Dawley rats are subjected to sham surgery (sham OVX) or ovariectomy (OVX) at time 0, and 10 rats are sacrificed to serve as baseline controls. Body weights are recorded weekly during the experiment. After approximately 6 weeks (42 days) or more of bone depletion, 10 sham OVX and 10 OVX rats are randomly selected for sacrifice as depletion period controls. Of the remaining animals, 10 sham OVX and 10 OVX rats are used as placebo-treated controls. The remaining OVX animals are treated with 3 to 5 doses of test drug for a period of 5 weeks (35 days). As a positive control, a group of OVX rats can be treated with an agent such as PTH, a known anabolic agent in this model (Kimmel, et al., Endocrinology (1993) 132:1577-84). […]
as §1
Simvastatin was also examined in a chronic OVX study. […] At the 50 mg/kg/day dose, an 86% (not significant) increase in the bone formation rate in the proximal tibia was measured.

[7] = 7 mg/kg/day oral, once per day for 35 days

CC[C@H](C)C(=O)O[C@H]1C[C@@H](C)C=C2C=C[C@H](C)[C@H](CC[C@@H]3C[C@@H](O)CC(=O)O3)[C@H]21 [Lovastatin, lovastatin]
bone loss in the femoral head as a result of dexamethasone treatment [1]: improved | triglyceride vesicles accumulated on dexamethasone treatment [2]: diminished triglyceride vesicles | effect on bone formation in the absence of steroid treatment [3]: no effect on bone formation | inhibition of the bone resorption resulting from steroid administration [3]: able to inhibit the bone resorption | increase in trabecular bone volume in the proximal tibia ([4]; 7 mg/kg/day oral, 35 days, histomorphometric analysis by two individuals (p<0.001; p=0.0503)): 110% and 25% | increase in trabecular bone volume in the distal femur ([4]; 7 mg/kg/day oral, 35 days, not significant): 23% | increase in bone formation rate in the distal femur ([4]; 7 mg/kg/day oral, 35 days, p=0.052): 40% | increase in cortical thickness (pQCT) [4, 7]: 14% | increase in trabecular density (pQCT) [4, 7]: 20% | increase in mineral apposition rate in the proximal tibia ([4]; second study, 1 mg/kg/day oral, 35 days): 22% | increase in bone formation rate in the proximal tibia ([4]; second study, 1 mg/kg/day oral, 35 days, p<0.008): 37% | increase in bone formation rate in the proximal tibia ([4]; second study, 10 mg/kg/day oral, 35 days, p=0.004): 74% | increase in trabecular bone volume in the proximal tibia ([4]; second study, 10 mg/kg/day oral, 35 days, two individuals (not significant; p<0.02), 10 mg/kg/day): 38% and 90% | dose-dependent stimulatory effect in control assays [5]: not in control assays

CCC(C)(C)C(=O)O[C@H]1C[C@@H](C)C=C2C=C[C@H](C)[C@H](CC[C@@H]3C[C@@H](O)CC(=O)O3)[C@H]21 [Simvastatin, simvastatin]
increase in the bone formation rate in the proximal tibia ([6]; 10 mg/kg/day oral): 114% | increase in the bone formation rate in the proximal tibia ([6]; 50 mg/kg/day oral): 86%
